Key:
Bile salt export pump [1] = target: Bile salt export pump (Homo sapiens, UniProt O95342); assay: Inhibition of human BSEP expressed in plasma membrane vesicles of Sf21 cells assessed as inhibition of ATP-dependent [3H]taurocholate uptake; format: cell membranes
Bile salt export pump [2] = target: Bile salt export pump (Rattus norvegicus, UniProt O70127); assay: Inhibition of Sprague-Dawley rat Bsep expressed in plasma membrane vesicles of Sf21 cells assessed as inhibition of ATP-dependent [3H]taurocholate uptake; format: cell membranes
Chain of Bile salt export pump (Rattus norvegicus, UniProt O70127) (O70127 whole entry): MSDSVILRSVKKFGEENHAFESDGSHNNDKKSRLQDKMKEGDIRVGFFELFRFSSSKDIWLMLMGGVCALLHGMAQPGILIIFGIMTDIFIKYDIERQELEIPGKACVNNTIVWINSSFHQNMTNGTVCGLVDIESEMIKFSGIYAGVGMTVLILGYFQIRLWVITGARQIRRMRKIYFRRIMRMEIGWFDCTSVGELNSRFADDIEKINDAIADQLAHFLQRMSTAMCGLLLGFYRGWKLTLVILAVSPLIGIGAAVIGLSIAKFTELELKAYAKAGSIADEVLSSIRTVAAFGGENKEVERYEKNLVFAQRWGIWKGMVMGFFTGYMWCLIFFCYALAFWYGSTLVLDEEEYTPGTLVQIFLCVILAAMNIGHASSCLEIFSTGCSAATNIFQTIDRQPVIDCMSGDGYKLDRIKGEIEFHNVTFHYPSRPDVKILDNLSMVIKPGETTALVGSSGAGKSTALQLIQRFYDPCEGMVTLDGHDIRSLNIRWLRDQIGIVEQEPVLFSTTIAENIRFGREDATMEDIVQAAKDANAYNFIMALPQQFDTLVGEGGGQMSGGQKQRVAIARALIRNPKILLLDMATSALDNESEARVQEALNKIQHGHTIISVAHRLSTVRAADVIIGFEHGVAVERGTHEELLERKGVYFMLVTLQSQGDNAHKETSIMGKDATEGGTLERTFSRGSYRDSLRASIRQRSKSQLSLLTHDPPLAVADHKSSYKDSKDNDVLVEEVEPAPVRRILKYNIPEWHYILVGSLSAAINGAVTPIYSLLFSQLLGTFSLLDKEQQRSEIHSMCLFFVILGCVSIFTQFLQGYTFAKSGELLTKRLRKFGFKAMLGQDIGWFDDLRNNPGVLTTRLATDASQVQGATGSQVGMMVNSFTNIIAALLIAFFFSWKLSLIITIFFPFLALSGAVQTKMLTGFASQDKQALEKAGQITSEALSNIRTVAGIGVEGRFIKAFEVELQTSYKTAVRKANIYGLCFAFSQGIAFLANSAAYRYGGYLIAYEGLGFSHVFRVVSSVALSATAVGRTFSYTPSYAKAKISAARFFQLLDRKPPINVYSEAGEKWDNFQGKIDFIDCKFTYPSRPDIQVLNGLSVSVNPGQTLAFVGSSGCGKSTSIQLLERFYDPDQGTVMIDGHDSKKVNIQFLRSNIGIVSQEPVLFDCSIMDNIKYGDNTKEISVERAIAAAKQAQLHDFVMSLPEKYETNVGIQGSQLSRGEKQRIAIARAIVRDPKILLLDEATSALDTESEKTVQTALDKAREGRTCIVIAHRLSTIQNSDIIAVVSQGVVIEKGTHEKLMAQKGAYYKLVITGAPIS

Chain of Bile salt export pump (Homo sapiens, UniProt O95342) (O95342 whole entry): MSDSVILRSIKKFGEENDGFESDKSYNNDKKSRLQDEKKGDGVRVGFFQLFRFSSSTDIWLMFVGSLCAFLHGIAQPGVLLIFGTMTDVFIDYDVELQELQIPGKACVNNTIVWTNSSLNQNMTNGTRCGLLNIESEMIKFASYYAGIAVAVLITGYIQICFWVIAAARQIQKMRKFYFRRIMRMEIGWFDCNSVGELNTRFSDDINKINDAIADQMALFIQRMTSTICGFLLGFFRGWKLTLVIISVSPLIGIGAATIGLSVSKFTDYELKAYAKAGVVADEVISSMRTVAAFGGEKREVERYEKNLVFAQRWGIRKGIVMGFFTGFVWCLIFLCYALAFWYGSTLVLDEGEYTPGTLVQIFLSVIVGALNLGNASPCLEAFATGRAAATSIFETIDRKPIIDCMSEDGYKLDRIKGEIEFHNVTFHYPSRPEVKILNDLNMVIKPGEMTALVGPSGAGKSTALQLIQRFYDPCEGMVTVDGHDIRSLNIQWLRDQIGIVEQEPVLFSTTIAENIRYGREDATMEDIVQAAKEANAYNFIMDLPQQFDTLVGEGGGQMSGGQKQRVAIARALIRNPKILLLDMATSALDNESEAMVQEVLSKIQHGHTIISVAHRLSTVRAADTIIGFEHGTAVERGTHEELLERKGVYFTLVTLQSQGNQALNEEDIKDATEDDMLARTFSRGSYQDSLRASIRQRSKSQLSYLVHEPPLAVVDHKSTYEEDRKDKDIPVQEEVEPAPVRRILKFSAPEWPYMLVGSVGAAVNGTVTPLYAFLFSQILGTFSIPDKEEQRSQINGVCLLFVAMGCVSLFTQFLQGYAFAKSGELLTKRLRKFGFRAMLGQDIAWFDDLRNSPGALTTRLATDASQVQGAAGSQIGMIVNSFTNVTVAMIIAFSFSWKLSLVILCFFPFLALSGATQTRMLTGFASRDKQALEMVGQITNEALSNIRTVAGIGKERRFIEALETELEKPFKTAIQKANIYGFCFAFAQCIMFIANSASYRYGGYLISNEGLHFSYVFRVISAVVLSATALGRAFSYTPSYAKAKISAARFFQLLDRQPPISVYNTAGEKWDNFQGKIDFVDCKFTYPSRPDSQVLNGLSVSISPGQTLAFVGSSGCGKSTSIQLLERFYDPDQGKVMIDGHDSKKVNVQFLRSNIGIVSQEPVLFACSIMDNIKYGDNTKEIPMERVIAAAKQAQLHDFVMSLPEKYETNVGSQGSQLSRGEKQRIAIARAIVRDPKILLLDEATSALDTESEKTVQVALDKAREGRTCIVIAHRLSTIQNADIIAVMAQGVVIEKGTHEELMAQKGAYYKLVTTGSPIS

CCCCNC(=O)NS(=O)(=O)c1ccc(C)cc1 [TOLBUTAMIDE]
IC50 (Bile salt export pump [1]): > 1000 µM | IC50 (Bile salt export pump [2]): > 1000 µM

CCN1CCCC1CNC(=O)c1cc(S(N)(=O)=O)ccc1OC (stereo unspecified) [SULPIRIDE]
IC50 (Bile salt export pump [1]): > 1000 µM | IC50 (Bile salt export pump [2]): > 1000 µM

CN(C)CCCN1c2ccccc2Sc2ccc(Cl)cc21 [CHLORPROMAZINE]
IC50 (Bile salt export pump [1]): 148 µM | IC50 (Bile salt export pump [2]): 122 µM

Cc1onc(-c2c(Cl)cccc2Cl)c1C(=O)N[C@@H]1C(=O)N2[C@@H]1SC(C)(C)[C@@H]2C(=O)O [DICLOXACILLIN]
IC50 (Bile salt export pump [1]): 69.7 µM | IC50 (Bile salt export pump [2]): 111 µM

Nc1c2c(nc3ccccc13)CCCC2 [TACRINE]
IC50 (Bile salt export pump [1]): > 1000 µM | IC50 (Bile salt export pump [2]): > 1000 µM

C#CCN(C)Cc1ccccc1 [PARGYLINE]
IC50 (Bile salt export pump [1]): > 1000 µM | IC50 (Bile salt export pump [2]): > 1000 µM

O=NN(CCCl)C(=O)NCCCl [CARMUSTINE]
IC50 (Bile salt export pump [1]): > 1000 µM | IC50 (Bile salt export pump [2]): > 1000 µM

CC(=O)O[C@H]1C[C@@]2(C)[C@@H](C[C@@H](O)[C@H]3[C@@]4(C)CC[C@@H](O)[C@@H](C)[C@@H]4CC[C@@]32C)/C1=C(\CCC=C(C)C)C(=O)O [FUSIDIC ACID]
IC50 (Bile salt export pump [1]): 11.5 µM | IC50 (Bile salt export pump [2]): 17.4 µM

CC(C)(Oc1ccc(C2CC2(Cl)Cl)cc1)C(=O)O (stereo unspecified) [CIPROFIBRATE]
IC50 (Bile salt export pump [1]): 573 µM | IC50 (Bile salt export pump [2]): 190 µM

CCOC(=O)c1ncn2c1CN(C)C(=O)c1cc(F)ccc1-2 [FLUMAZENIL]
IC50 (Bile salt export pump [1]): > 1000 µM | IC50 (Bile salt export pump [2]): > 1000 µM

CC(C)Cc1ccc(C(C)C(=O)O)cc1 (stereo unspecified) [IBUPROFEN]
IC50 (Bile salt export pump [1]): 599 µM | IC50 (Bile salt export pump [2]): 291 µM

C[C@](N)(Cc1ccc(O)c(O)c1)C(=O)O [METHYLDOPA]
IC50 (Bile salt export pump [1]): > 1000 µM | IC50 (Bile salt export pump [2]): > 1000 µM

Cc1ccc(S(=O)(=O)NC(=O)NN2CC3CCCC3C2)cc1 (stereo unspecified) [GLICLAZIDE]
IC50 (Bile salt export pump [1]): > 1000 µM | IC50 (Bile salt export pump [2]): > 1000 µM

CCC(=O)O[C@]1(C(=O)CCl)[C@@H](C)C[C@H]2[C@@H]3CCC4=CC(=O)C=C[C@]4(C)[C@@]3(F)[C@@H](O)C[C@@]21C [CLOBETASOL PROPIONATE]
IC50 (Bile salt export pump [1]): 8.5 µM | IC50 (Bile salt export pump [2]): 35 µM

Nc1nc2c(ncn2COCCO)c(=O)[nH]1 [ACYCLOVIR]
IC50 (Bile salt export pump [1]): > 1000 µM | IC50 (Bile salt export pump [2]): > 1000 µM

CC(C)C(=O)Nc1ccc([N+](=O)[O-])c(C(F)(F)F)c1 [FLUTAMIDE]
IC50 (Bile salt export pump [1]): 143 µM | IC50 (Bile salt export pump [2]): 78.7 µM

NC(N)=Nc1nc(CSCCC(N)=NS(N)(=O)=O)cs1 [FAMOTIDINE]
IC50 (Bile salt export pump [1]): > 1000 µM | IC50 (Bile salt export pump [2]): > 1000 µM

O=C(O)Cc1csc(-c2ccc(Cl)cc2)n1 [FENCLOZIC ACID]
IC50 (Bile salt export pump [1]): > 1000 µM | IC50 (Bile salt export pump [2]): > 1000 µM

NNc1nnc(NN)c2ccccc12 [DIHYDRALAZINE]
IC50 (Bile salt export pump [1]): > 1000 µM | IC50 (Bile salt export pump [2]): > 1000 µM

COc1cc(C)c(/C=C/C(C)=C/C=C/C(C)=C/C(=O)O)c(C)c1C [ACITRETIN]
IC50 (Bile salt export pump [1]): 18.2 µM | IC50 (Bile salt export pump [2]): 19.7 µM

Cc1onc(-c2ccccc2Cl)c1C(=O)N[C@@H]1C(=O)N2[C@@H]1SC(C)(C)[C@@H]2C(=O)O [CLOXACILLIN]
IC50 (Bile salt export pump [1]): 220 µM | IC50 (Bile salt export pump [2]): 377 µM

COC(=O)C1=C(C)NC(C)=C(C(=O)OC)C1c1ccccc1[N+](=O)[O-] [NIFEDIPINE]
IC50 (Bile salt export pump [1]): 30.7 µM | IC50 (Bile salt export pump [2]): 45.4 µM

O=C(O)c1cc(-c2ccccc2)nc2ccccc12 [CINCHOPHEN]
IC50 (Bile salt export pump [1]): 695 µM | IC50 (Bile salt export pump [2]): 296 µM

NNC(=O)c1ccncc1 [ISONIAZID]
IC50 (Bile salt export pump [1]): > 1000 µM | IC50 (Bile salt export pump [2]): > 1000 µM

CCCN(CCC)S(=O)(=O)c1ccc(C(=O)O)cc1 [PROBENECID]
IC50 (Bile salt export pump [1]): 565 µM | IC50 (Bile salt export pump [2]): 510 µM

O=C1CC2(CCCC2)CC(=O)N1CCCCN1CCN(c2ncccn2)CC1 [BUSPIRONE]
IC50 (Bile salt export pump [1]): 105 µM | IC50 (Bile salt export pump [2]): 370 µM

O=c1[nH]c(=O)n([C@@H]2O[C@H](CO)[C@@H](O)[C@@H]2F)cc1I [FIALURIDINE]
IC50 (Bile salt export pump [1]): > 1000 µM | IC50 (Bile salt export pump [2]): > 1000 µM

C[N+](C)(C)CC(=O)O [BETAINE]
IC50 (Bile salt export pump [1]): > 1000 µM | IC50 (Bile salt export pump [2]): > 1000 µM

From ChEMBL document CHEMBL3526080, “In vitro inhibition of the bile salt export pump correlates with risk of cholestatic drug-induced liver injury in humans” (Drug Metab Dispos, 2012)
